Measurements published in patent US20250177383A1, “DI-CYCLOPROPYL BASED IL-17A MODULATORS AND USES THEREOF” (DICE ALPHA, INC., priority 2022, published 2025).

Key:
[1] = Microsomal stability, rat liver microsomes; format: in vitro ADME; details: SD rat liver microsomes 0.5 mg protein/mL, 1 μM test compound, NADPH, 37° C., 60 min; read-out: RLM Clint
Protocol: (§1) Test compound and control working solution preparation. 5 μL of a compound and control stock solution (10 mM in dimethyl sulfoxide (DMSO)) were diluted with 495 μL of acetonitrile (ACN).
(§2) NADPH cofactor preparation. The appropriate amount of NADPH powder was weighed and diluted into a 10 mM MgCl2 solution (working solution concentration: 10 mM; final concentration in reaction system: 1 mM). Materials: NADPH powder: β-Nicotinamide adenine dinucleotide phosphate reduced form, tetrasodium salt; NADPHA4Na (Vendor: Chem-Impex International, Cat. No. 00616).
(§3) Liver Microsome Preparation. The appropriate concentrations of microsome working solutions were prepared in 100 mM potassium phosphate buffer. Materials: Human Liver Microsomes (HLM) Cat No. 452117 and Lot No. 38295 (Corning); SD Rat Liver Microsomes (RLM) Cat No. R1000 and Lot No. 1910100 (Xenotech).
(§4) Stop solution preparation. Cold (4° C.) acetonitrile (ACN) containing 200 ng/mL tolbutamide and 200 ng/mL labetalol as internal standards (IS) were used as the stop solution.
(§5) Assay Procedure. Empty incubation plates (T60 and NCF60) were warmed for 10 mins prior to use. Liver microsomes were diluted to 0.56 mg/mL in 100 mM phosphate buffer. 445 uL microsome working solutions (0.56 mg/mL) were transferred into pre-warmed ‘Incubation’ plates T60 and NCF60, Then ‘Incubation’ plates T60 and NCF60 were pre-incubated for 10 min at 37° C. with constant shaking. 54 μL liver microsomes were transferred to the blank plate, then 6 μL NAPDH cofactor were added to the blank plate, followed by the addition 180 μL quenching solution to the blank plate. 5 μL compound working solution (100 μM) were added into ‘incubation’ plates (T60 and NCF60) containing microsomes and mixed thoroughly 3 times. To the NCF60 plate 50 μL of buffer were added and mixed 3 times thoroughly. Start timing; plate was incubated at 37° C. for 60 min while shaking. In ‘Quenching’ plate TO, were added 180 μL quenching solution and 6 μL NAPDH cofactor. Plate is chilled to prevent evaporation. The T60 plate, was mixed 3 times thoroughly, and immediately 54 μL of the mixture was removed for the 0-min time point to ‘Quenching’ plate. Then 44 μL NAPDH cofactor was added to the incubation plate (T60). Start timing; plate was incubated at 37° C. for 60 min while shaking. Final concentrations of each component in the incubation media: Microsome (0.5 mg protein/mL); Test compound (1 μM); control compound ([…]); ACN (0.99%); and DMSO (0.01%). At 5, 15, 30, 45, and 60 min, 180 μL quenching solution was added to ‘Quenching’ plates, mixed once, and serially transferred 60 μL of sample from T60 plate per time point to ‘Quenching’ plates. For the NCF60 plate, mix once and 60 μL of sample was transferred from the NCF60 incubation to ‘Quenching’ plate containing quenching solution at the 60-min time point (Start time 1:00:00 and End Time 0:00:00).
(§6) All sampling plates were shaken for 10 min, then centrifuged at 4000 rpm for 20 minutes at 4° C. 80 μL of supernatant were transferred into 240 μL HPLC water, and mixed by plate shaker for 10 min. Each bioanalysis plate was sealed and shaken for 10 minutes prior to LC-MS/MS analysis.

[2] = Microsomal stability, human liver microsomes; format: in vitro ADME; details: human liver microsomes 0.5 mg protein/mL, 1 μM test compound, NADPH, 37° C., 60 min; read-out: HLM Clint
Protocol: as §1, §2, §3, §4, §5, §6

Rat pharmacokinetics, PO = format: in vivo; details: male rat, PO 5 mg/kg oral gavage, plasma, Linear/log trapezoidal; read-out: Rat PO AUC0-t
Protocol: Formulations for PO. An appropriate amount of the test article is weighed and mixed with the appropriate volume of vehicle to get a clear solution or a uniform suspension, vortexing or sonication in water bath may used. Animals are dosed within four hours after the formulation is prepared.
Formulation samples are removed from each of the formulation solutions or suspensions, transferred into 1.5 mL of polypropylene microcentrifuge tubes and run dose validated by LC/UV or LC-MS/MS.
Dose administration. For PO dosing, the dose formulation is administered via oral gavage.
Blood Collection. Each blood collection (about 0.2 mL per time point) is performed from carotid artery cannula (CAC) of each animal into a pre-chilled commercial EDTA-K2 tubes as anti-coagulant, then placed on wet ice until centrifugation. Blood samples are processed for plasma by centrifugation at approximately 4° C., 3,200 g for 10 min. Plasma is collected respectively and a certain amount of plasma from rat is transferred into pre-labeled 96 well plate or polypropylene tubes, quick frozen over dry ice and kept at −60° C. or lower until LC-MS/MS analysis. After terminal collection, all plasmas are stored at approximately −80° C. freezer until final analysis.
Plasma concentration versus time data are plotted in graph and analyzed by non-compartmental approaches using the Phoenix WinNonlin 6.3 software program. Trapezoids: Before TMax (Linear); After Tmax (Log). Partial Area Interpolations: Before TMax (Linear); After Tmax (Log).

IL-17A/A = biological target: T1, IL-17A/A (Homo sapiens, UniProt Q16552); assay: IL-17A/A HEK-Blue Cell Assay; format: cell-based; details: HEK-Blue IL-17 reporter cells, IL-17A/A stimulation, 20 hours, SEAP readout; read-out: IL17 AA HEK-5 pIC50 (converted)
T1 sequence (Q16552 24-155): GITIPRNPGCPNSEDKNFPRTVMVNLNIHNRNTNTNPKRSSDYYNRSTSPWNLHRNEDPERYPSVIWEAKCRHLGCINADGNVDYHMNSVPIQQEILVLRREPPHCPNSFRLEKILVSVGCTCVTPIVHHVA
Method in brief: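 Cells co-expressing IL-17RA, IL-17RC and Act1 received titrated compound, top final 10 uM in 0.1% DMSO, immediately before IL-17A/A stimulation.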

IL-17A/F = biological target: T2, IL-17A/F (Homo sapiens, UniProt Q16552+Q96PD4); assay: IL-17A/F HEK-Blue Cell Assay; format: cell-based; details: HEK-Blue IL-17 reporter cells, IL-17A/F stimulation, 20 hours, SEAP readout; read-out: IL17AF HEK Blue pIC50 (converted)
T2 sequence (Q16552 24-155): T1 sequence (Q16552 24-155)
T2 sequence (Q96PD4 31-163): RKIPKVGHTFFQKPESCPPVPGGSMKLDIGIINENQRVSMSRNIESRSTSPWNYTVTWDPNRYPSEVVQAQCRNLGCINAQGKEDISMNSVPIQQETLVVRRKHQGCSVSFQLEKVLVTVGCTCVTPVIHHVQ

Row | microsomal CLint at 1 μM [1] | microsomal CLint at 1 μM [2] | AUC(0-t) (Rat pharmacokinetics, PO) | IC50 (IL-17A/A) | IC50 (IL-17A/F) | Structure (SMILES)
1 | < 9.6 µL/min/mg | < 50 µL/min/mg | > 1000 ng·h/mL | < 10 nM | 10 to 100 nM | CCn1nccc1C(=O)N[C@H](C(=O)Nc1ccc([C@H](C)[C@@H](NC(=O)COC)C(=O)N2CCN(C)C(CF)C2)cc1F)C(C1CC1)C1CC1 (single isomer, unassigned) [Compound 298]
2 | < 9.6 µL/min/mg | 50 to 150 µL/min/mg | 500 to 1000 ng·h/mL | < 10 nM | – | CCC(=O)N[C@@H](C(=O)N1CCN(C)CC1)[C@@H](C)c1ccc(NC(=O)[C@@H](NC(=O)c2ccnn2C(C)C)C(C2CC2)C2CC2)c(F)c1 [Compound 257]
3 | 9.6 to 20 µL/min/mg | 50 to 150 µL/min/mg | 500 to 1000 ng·h/mL | – | – | CCn1nccc1C(=O)N[C@H](C(=O)Nc1ccc([C@H](C)[C@@H](NC(=O)COC)C(=O)N2CCN(C)[C@H](C)C2)cc1F)[C@H]1CC[C@H](C)CC1 [D, reference compound]
4 | 9.6 to 20 µL/min/mg | > 150 µL/min/mg | 500 to 1000 ng·h/mL | – | – | CCC(=O)N[C@@H](C(=O)N1CCN(C)[C@H](C)C1)[C@@H](C)c1ccc(NC(=O)[C@@H](NC(=O)c2ccnn2CC(F)F)[C@H]2CC[C@H](C)CC2)c(F)c1 [E, reference compound]
5 | 9.6 to 20 µL/min/mg | 50 to 150 µL/min/mg | 500 to 1000 ng·h/mL | – | – | CCC(=O)N[C@@H](C(=O)N1CCN(C)[C@H](C)C1)[C@@H](C)c1ccc(NC(=O)[C@@H](NC(=O)c2ccnn2CCF)[C@H]2CC[C@H](C)CC2)c(F)c1 [F, reference compound]
6 | > 20 µL/min/mg | > 150 µL/min/mg | 500 to 1000 ng·h/mL | – | – | CCC(=O)N[C@@H](C(=O)N1CCN(C)[C@H](C)C1)[C@@H](C)c1ccc(NC(=O)[C@@H](NC(=O)c2ccnn2CC)[C@H]2CC[C@H](C)CC2)c(F)c1 [G, reference compound]
7 | 9.6 to 20 µL/min/mg | 50 to 150 µL/min/mg | < 500 ng·h/mL | – | – | CCC(=O)N[C@@H](C(=O)N1CCN(C)[C@H](C)C1)[C@@H](C)c1ccc(NC(=O)[C@@H](NC(=O)C2(F)CC2)[C@H]2CC[C@H](C)CC2)c(F)c1 [H, reference compound]
8 | 9.6 to 20 µL/min/mg | > 150 µL/min/mg | < 500 ng·h/mL | – | – | CCC(=O)N[C@@H](C(=O)N1CCN(C)[C@@H](C)C1)[C@@H](C)c1ccc(NC(=O)[C@@H](NC(=O)c2ccnn2CC)[C@H]2CC[C@H](C)CC2)c(F)c1 [I, reference compound]
9 | > 20 µL/min/mg | > 150 µL/min/mg | < 500 ng·h/mL | – | – | CCn1nccc1C(=O)N[C@H](C(=O)Nc1ccc([C@H](C)[C@@H](NC(=O)N(C)C2CC2)C(=O)N2CCN(C)CC2)cc1F)[C@H]1CC[C@H](C)CC1 [J, reference compound]
10 | < 9.6 µL/min/mg | > 150 µL/min/mg | 500 to 1000 ng·h/mL | – | – | CCn1nccc1C(=O)N[C@H](C(=O)Nc1ccc([C@H](C)[C@@H](NC(=O)COC)C(=O)N2CCN(C)CC2)cc1F)[C@H]1CC[C@H](C)CC1 [K, reference compound]
11 | 9.6 to 20 µL/min/mg | > 150 µL/min/mg | 500 to 1000 ng·h/mL | – | – | CCC(=O)N[C@@H](C(=O)N1CCN(C)CC1)[C@@H](C)c1ccc(NC(=O)[C@@H](NC(=O)c2ccnn2C(C)C)[C@H]2CC[C@H](C)CC2)c(F)c1 [L, reference compound]

Further lines, the compound ahead of its results:

Row | Structure (SMILES) | microsomal CLint at 1 μM [1] | microsomal CLint at 1 μM [2] | AUC(0-t) (Rat pharmacokinetics, PO) | IC50 (IL-17A/A) | IC50 (IL-17A/F)
12 | CCC(=O)N[C@@H](C(=O)N1C[C@@H](C)N(C)C[C@H]1C)[C@@H](C)c1ccc(NC(=O)[C@@H](NC(=O)c2ccnn2CC)[C@H]2CC[C@H](C)CC2)c(F)c1 [A, reference compound] | > 20 µL/min/mg | 50 to 150 µL/min/mg | 500 to 1000 ng·h/mL | – | –
13 | CCn1nccc1C(=O)N[C@H](C(=O)Nc1ccc([C@H](C)[C@@H](NC(=O)COC)C(=O)N2CCN(C)[C@@H](CF)C2)cc1F)[C@H]1CC[C@H](C)CC1 [B, reference compound] | 9.6 to 20 µL/min/mg | 50 to 150 µL/min/mg | < 500 ng·h/mL | – | –
14 | CCn1nccc1C(=O)N[C@H](C(=O)Nc1ccc([C@H](C)[C@@H](NC(C)=O)C(=O)N2CCN(C)[C@H](C)C2)cc1F)[C@H]1CC[C@H](C)CC1 [C, reference compound] | > 20 µL/min/mg | > 150 µL/min/mg | < 500 ng·h/mL | – | –
15 | CCc1nonc1C(=O)N[C@H](C(=O)Nc1ccc([C@H](C)[C@@H](NC(C)=O)C(=O)N2CCN(C)[C@H](C)C2)cc1F)C(C1CC1)C1CC1 [Compound 214] | 9.6 to 20 µL/min/mg | 50 to 150 µL/min/mg | < 500 ng·h/mL | < 10 nM | –
16 | CCC(=O)N[C@@H](C(=O)N1CCN(C)[C@H](C)C1)[C@@H](C)c1ccc(NC(=O)[C@@H](NC(=O)c2ccnn2CCF)C(C2CC2)C2CC2)c(F)c1 [Compound 217] | < 9.6 µL/min/mg | < 50 µL/min/mg | < 500 ng·h/mL | < 10 nM | –
17 | CCC(=O)N[C@@H](C(=O)N1C[C@@H](C)N(C)[C@@H](C)C1)[C@@H](C)c1ccc(NC(=O)[C@@H](NC(=O)c2ccnn2CC)C(C2CC2)C2CC2)c(F)c1 [Compound 223] | 9.6 to 20 µL/min/mg | 50 to 150 µL/min/mg | < 500 ng·h/mL | < 10 nM | –
18 | CCn1nccc1C(=O)N[C@H](C(=O)Nc1ccc([C@H](C)[C@@H](NC(=O)N(C)C2CC2)C(=O)N2CCN(C)CC2)cc1F)C(C1CC1)C1CC1 [Compound 225] | > 20 µL/min/mg | 50 to 150 µL/min/mg | < 500 ng·h/mL | < 10 nM | –
19 | CCC(=O)N[C@@H](C(=O)N1CCN(C)[C@H](C)C1)[C@@H](C)c1ccc(NC(=O)[C@@H](NC(=O)c2ccnn2CC(F)F)C(C2CC2)C2CC2)c(F)c1 [Compound 232] | < 9.6 µL/min/mg | < 50 µL/min/mg | < 500 ng·h/mL | < 10 nM | –
